Assay in all cases: ≥ marks a high value that may be exact or a test limit, other limits are often not marked, values filed in µg/mL are converted to µM
Assay [1] relates to Pseudomonas aeruginosa ATCC 9027.
The subject of assay [2] is Staphylococcus aureus ATCC 6538.
Assay [3] deals with Escherichia coli ATCC 25922.
Assay [4] concerns Pseudomonas aeruginosa ATCC 27853.
Assay [5] has as its system Staphylococcus aureus ATCC 29213.
Assay [6] concerns Staphylococcus aureus ATCC 43300.

Converted amounts (≈) assume the structure as drawn. Bounds are passed on as bounds.

In the case of `CC(C)C[C@H](NC(=O)[C@H](CCCCN)NC(=O)[C@H](C)NC(=O)[C@H](CC(C)C)NC(=O)[C@H](CC(C)C)NC(=O)[C@H](CCCCN)NC(=O)[C@H](C)NC(=O)[C@@H](N)Cc1ccccc1)C(=O)N[C@@H](C)C(=O)N[C@@H](CCCCN)C(=O)N[C@@H](C)C(=O)N[C@@H](CCCCN)C(=O)NCC(N)=O` [FAKLLAKLAKAKG], the MIC in assay [1] and in assay [2] was over 147 µM each time.
`CC(C)C[C@H](NC(=O)[C@H](CC(C)C)NC(=O)[C@H](CCCCN)NC(=O)[C@H](CCCCN)NC(=O)[C@H](C)NC(=O)[C@H](CC(C)C)NC(=O)[C@H](CCCCN)NC(=O)[C@H](CCCCN)NC(=O)[C@H](C)NC(=O)[C@@H](N)Cc1ccccc1)C(N)=O` [FAKKLAKKLL]: the MIC in assay [1] and in assay [2] was over 172 µM throughout.
As to `CC(C)C[C@H](NC(=O)[C@H](CC(C)C)NC(=O)[C@H](CCCCN)NC(=O)[C@H](CCCCN)NC(=O)[C@H](C)NC(=O)[C@H](CC(C)C)NC(=O)[C@H](CC(C)C)NC(=O)[C@H](CCCCN)NC(=O)[C@H](C)NC(=O)[C@@H](N)Cc1ccccc1)C(N)=O` [FAKLLAKKLL], the MIC is 175 µM (≈ 200 µg/mL) in assay [1] and 87.4 µM (≈ 99.9 µg/mL) in assay [2].
On the same counts, the results for `CC(C)C[C@H](NC(=O)[C@H](CCCCN)NC(=O)[C@H](C)NC(=O)[C@H](CCCCN)NC(=O)[C@H](C)NC(=O)[C@H](CC(C)C)NC(=O)[C@H](CCCCN)NC(=O)[C@H](C)NC(=O)[C@H](CC(C)C)NC(=O)[C@H](CC(C)C)NC(=O)[C@H](CCCCN)NC(=O)[C@H](C)NC(=O)[C@@H](N)Cc1ccccc1)C(N)=O` [FAKLLAKLAKAKL] are 35.3 µM (≈ 50 µg/mL) and 10.6 µM (≈ 15 µg/mL).
As for `CC[C@H](C)[C@H](NC(=O)CN)C(=O)NCC(=O)N[C@@H](C)C(=O)N[C@H](C(=O)N[C@@H](CC(C)C)C(=O)N[C@@H](CCCCN)C(=O)N[C@H](C(=O)N[C@@H](CC(C)C)C(=O)N[C@H](C(=O)N[C@H](C(=O)NCC(=O)N[C@@H](CC(C)C)C(=O)N[C@@H](CS)C(=O)N[C@@H](C)C(=O)N[C@@H](CC(C)C)C(=O)N[C@H](C(=O)N[C@@H](CO)C(=O)N[C@@H](Cc1c[nH]c2ccccc12)C(=O)N[C@H](C(=O)N[C@@H](CCCCN)C(=O)N[C@@H](CCCN=C(N)N)C(=O)N[C@@H](CCCCN)C(=O)N[C@@H](CCCN=C(N)N)C(=O)N[C@@H](CCC(N)=O)C(=O)N[C@@H](CCC(N)=O)C(=O)O)[C@@H](C)CC)[C@@H](C)CC)[C@@H](C)O)[C@@H](C)O)C(C)C)C(C)C` [GIGAVLKVLTTGLCALISWIKRKRQQ], the minimal inhibitory concentration (MIC) in assay [3], in assay [4], in assay [5] and in assay [6] was 62.5 µM (≈ 178 µg/mL) in each case.
For the compound `CC(C)C[C@H](NC(=O)[C@H](C)NC(=O)[C@H](Cc1ccccc1)NC(=O)[C@H](CCCCN)NC(=O)[C@H](CCCCN)NC(=O)[C@H](C)NC(=O)[C@H](CC(C)C)NC(=O)[C@H](CCCCN)NC(=O)[C@H](C)NC(=O)[C@H](Cc1ccccc1)NC(=O)[C@H](CC(C)C)NC(=O)[C@H](CCCCN)NC(=O)[C@H](C)NC(=O)[C@@H](N)Cc1ccccc1)C(N)=O` [FAKLFAKLAKKFAL], the MIC is over 125 µM in assay [1] and 31.3 µM (≈ 50 µg/mL) in assay [2].
Taken in the same sequence, the figures for `CC(C)C[C@H](NC(=O)[C@H](CC(C)C)NC(=O)[C@H](CCCCN)NC(=O)[C@H](CCCCN)NC(=O)[C@H](C)NC(=O)[C@H](CC(C)C)NC(=O)[C@H](CCCCN)NC(=O)[C@H](C)NC(=O)[C@H](CC(C)C)NC(=O)[C@H](CC(C)C)NC(=O)[C@H](CCCCN)NC(=O)[C@H](C)NC(=O)[C@@H](N)C(C)C)C(N)=O` [VAKLLAKLAKKLL] were 3.55 µM (≈ 5 µg/mL) and 3.55 µM (≈ 5 µg/mL).

The values above are taken from DBAASP.
